Two compounds from ChEMBL document CHEMBL4261616, “Discovery of heterocyclic replacements for the coumarin core of anti-tubercular FadD32 inhibitors” (Bioorg Med Chem Lett, 2018) can be followed below.

Converted amounts (≈) assume the structure as drawn.

The subject of this assay is Mycobacterium tuberculosis. The experiment in a line: Antimycobacterial activity against Mycobacterium tuberculosis H37Rv harboring FadD32 mutant after 6 days by resazurin dye based fluorescence assay. It counts as functional.

In turn, `Cc1cc2nccc(-c3ccccc3)c2c(C)c1-c1ccc(CN2CCOCC2)cc1` displayed an MIC90 of 15.6 µM (≈ 6.37 µg/mL).

Regarding `CNC(=O)c1cc(-c2ccccc2Cl)c2c(C)c(-c3ccncc3)c(C)cc2n1`, the MIC90 turned out to be 6.25 µM (≈ 2.51 µg/mL).

One may read the MIC90 as the lowest concentration that inhibits either 90% of growth or 90% of the strains tested, depending on the study. Low values mean higher susceptibility, high ones lower susceptibility.
